Values of other authors, collected in PMC9572513, “Novel Unsymmetric 3,5-Bis(benzylidene)-4-piperidones That Display Tumor-Selective Toxicity” (Molecules, 2022).

System: human oral squamous carcinoma
Design: method as in PMID 32858984, PMID 31892556
Conditions: cited from earlier work

Row | Structure (SMILES) | SI (tumor specificity)
1 | COc1ccc2c(=O)c(/C=C/c3ccc(O)cc3)coc2c1 [3-[(1E)-2-(4-hydroxyphenyl)ethenyl]-7-methoxy-4H-1-benzopyran-4-one] | 182
2 | COc1ccc2c(=O)c(/C=C/c3ccccc3)coc2c1 [7-methoxy-3-[(1E)-2-phenylethenyl]-4H-1-benzopyran-4-one] | 301
